Data on four molecules can be found in US20090156674A1, “Valnemulin Salts with Organic Acids” (priority 2005, published 2009).

A short description of series [1]: Stability of valnemulin acid addition salts in the pelleting procedure for animal feed. The format is physicochemical. The settings on record: pelleting at 75° C.; wheat-based animal feed; 100 ppm valnemulin in the feed. As to the method: In order to test the stability of the valnemulin acid addition salts in animal feed, the calculated amount of the acid addition salt (corresponding to a target dose of 100 ppm) is added to ca. 4 kg of wheat-based animal feed and mixed in a high-speed laboratory mixer for 60 seconds to form a first premix (PM1). The ca. 4 kg of premix PM1 is then transferred to a horizontal mixer and mixed with 21 kg of the same feed for a further 6 minutes to form a further premix (PM2). The ca. 25 kg of premix PM2 is transferred to a vertical mixer and intimately mixed with a further 175 kg of the same animal feed for 8 minutes, whereupon a homogeneous, treated mixture is obtained, which contains valnemulin concentrations corresponding to the target dose of 100 ppm. Prior to further processing, samples of ca. 100 g each are taken from the upper, centre and lower part of the medicinal feed mixture, in order to test its homogeneity. In addition, further samples are taken randomly for use in stability tests. The finished, treated medicinal feed is now ready for pelleting. […] The 200 kg of finished medicinal feed is then fed continuously into the pelleting press of the feed mill over the course of ca. 20 mins. Afterwards, the pellets are dried in batches in a continuous stream of air, and cooled. To examine the homogeneity of the pelleted medicinal feed, several samples of ca. 100 g each are taken at the start, middle and end of the pelleting process. In addition, samples are taken in a random order from each batch, in order to test the stability in storage. […] In the following table 1, by way of example, the stabilities of different acid addition salts of valnemulin in the pelleting procedure for the animal feed are compared.

Series [2] is described as follows: Stability of valnemulin during production and storage of feed pellets (background statements). It counts as physicochemical. The text has this: It has been shown that valnemulin is rather unstable when producing pelleted feed, particularly when in contact with the feed material, especially constituents of vegetable or animal origin. This leads to substantial losses already at the preparation stage. In the preparation of pelleted feed, the dried organic starting material of animal or vegetable origin is ground, mixed intimately with the admixtures, vitamins, trace elements and other additives, i.e. substantially homogenized, and then optionally moistened with ca. 5 to 10% by weight water and compressed into feed pellets at elevated temperatures ranging from ca. 60 to 100° C. at pressures of ca. 1 to 100 kbar. Short-term, local temperature peaks in the press, so-called flashes, even reach 200° C. for a short time. The retention time of the mass in the press is generally from ca. 5 to 180 seconds and depends inter alia on the size of the pellets.
Whereas valnemulin in the form of the dried, amorphous hydrochloride salt withstands these temperatures for a short time without significant decomposition and can be stored at room temperature even for a few months without any measurable loss of active ingredient, this active ingredient decomposes relatively rapidly under pressure and in intimate contact with animal or vegetable feed constituents and at the prevailing elevated temperatures. […]

Counter-ions that a name gives are not always drawn.

Take `C=C[C@]1(C)C[C@@H](OC(=O)CSC(C)(C)CNC(=O)[C@H](N)C(C)C)[C@]2(C)[C@H](C)CC[C@]3(CCC(=O)[C@H]32)[C@@H](C)[C@@H]1O` [valnemulin hydrochloride]: the “Loss of active substance in the pelleting procedure, average loss” value (shortened to “Loss of active substance”) in series [1] amounted to 11.6%. In the case of `C=C[C@]1(C)C[C@@H](OC(=O)CSC(C)(C)CNC(=O)[C@H](N)C(C)C)[C@]2(C)[C@H](C)CC[C@]3(CCC(=O)[C@H]32)[C@@H](C)[C@@H]1O.O=C(O)/C=C/C(=O)O` [valnemulin hydrogen fumarate, Valnemulin Hydrogen Fumarate], in series [1], the “Loss of active substance” value stood at 0.2%.

Take `C=C[C@]1(C)C[C@@H](OC(=O)CSC(C)(C)CNC(=O)C(N)C(C)C)[C@]2(C)C(C)CC[C@]3(CCC(=O)C32)[C@@H](C)[C@@H]1O` (some centres unmarked) [valnemulin, Valnemulin]: in series [2] (finished pellets, room temperature, after three months), the “content of active ingredient in finished pellets on storage” value was “below 60%”. In addition, in series [2] (raised pressure and elevated temperature kept as short as possible, pellets immediately cooled to room temperature, contact with feed constituents), the “active ingredient lost in compression into feed pellets” value is recorded as “one quarter to one third”. `C=CC1(C)CC(OC(=O)CSC(C)(C)CNC(=O)C(N)C(C)C)C2(C)C(C)CCC3(CCC(=O)C32)C(C)C1O.O=C(O)C(O)C(O)C(=O)O` [valnemulin D-hydrogen tartrate, Valnemulin D-Hydrogen Tartrate]: the “Loss of active substance” value in series [1] was determined as 0.3%.
